Our source for the inhibition values is US7799775B2, “Pyrimidine derivatives” (ASKA Pharmaceutical Co., Ltd., priority 2004, dated 2010).

In this assay the target is T1, human 5-HT1A receptor (Homo sapiens, UniProt P08908).
T1 construct: purchased Packard Bioscience; host or cells: CHO cells (membrane preparation)
T1 sequence (P08908 1-422): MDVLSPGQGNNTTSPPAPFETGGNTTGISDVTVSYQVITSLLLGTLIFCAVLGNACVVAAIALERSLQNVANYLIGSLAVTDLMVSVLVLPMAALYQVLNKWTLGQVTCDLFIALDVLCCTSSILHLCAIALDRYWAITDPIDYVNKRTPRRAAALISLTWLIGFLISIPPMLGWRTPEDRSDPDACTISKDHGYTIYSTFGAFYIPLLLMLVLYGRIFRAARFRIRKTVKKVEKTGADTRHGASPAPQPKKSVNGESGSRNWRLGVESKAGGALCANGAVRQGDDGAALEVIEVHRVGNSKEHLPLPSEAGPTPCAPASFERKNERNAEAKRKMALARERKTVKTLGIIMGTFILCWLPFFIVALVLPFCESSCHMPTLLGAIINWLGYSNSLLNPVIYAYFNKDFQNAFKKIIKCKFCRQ
As to the kind of experiment: Affinity measurement of the compounds to human 5-HT1A receptor (in vitro), [3H]8-OH-DPAT binding. The note with it: test compound 100 nmols/L; [3H]8-OH-DPAT 0.25 nmols/L; CHO cell membrane expressing human 5-HT1A receptor; read-out: Percent Inhibition (%) on Each Receptor's Binding at 10^−7M, 5-HT1A. A digest of the protocol: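 Membranes from CHO cells expressing human 5-HT1A were incubated 60 min at 27 °C with 0.25 nmol/L [3H]8-OH-DPAT and compound in Tris/MgSO4/EDTA/ascorbate buffer, pH 7.4. Bound radioactivity was collected on PEI-soaked GF/C filters and counted; percent inhibition was corrected for non-specific binding defined with 10 μmol/L 8-OH-DPAT.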
For orientation: inhibition means the drop in the measured response relative to a control, in per cent. With `Clc1ccc2ccnc(N3CCNCC3)c2c1` [Production Example 49, 7-chloro-1-piperazin-1-ylisoquinoline], the inhibition at 0.1 µM turned out to be 88.7%.
Regarding `c1cc2ccoc2c(N2CCN3CCC[C@H]3C2)n1` [Production Example 102, 7-((8aS)-octahydropyrrolo[1,2-a]pyrazin-2-yl)furo[2,3-c]-pyridine], the inhibition at 0.1 µM stood at 95.4%.
Take `Cn1c(CCCCN2CCN(c3ccc4ccccc4n3)CC2)nc2ccccc2c1=O` [Example 7-20, 3-methyl-2-[4-(4-quinolin-2-ylpiperazin-1-yl)butyl]-3H-quinazolin-4-one]: the inhibition at 0.1 µM was 101%.
In the case of `c1cc2sccc2c(N2CCN3CCC[C@H]3C2)n1` [Production Example 104, 4-((8aS)-octahydropyrrolo[1,2-a]pyrazin-2-yl)thieno[3,2-c]pyridine], the inhibition at 0.1 µM was found to be 85.5%.
Regarding `COc1ccc2ccnc(N3CCNC(C)C3)c2c1` (stereo not shown) [Production Example 38, 7-methoxy-1-(3-methylpiperazin-1-yl)isoquinoline], the inhibition at 0.1 µM was determined as 94.8%.
In the case of `COc1ccc2ccnc(N3CCN4CCC[C@H]4C3)c2c1` [Production Example 72, 1-((8aS)-octahydropyrrolo[1,2-a]pyrazin-2-yl)-7-methoxyisoquinoline] it was 96.7%; in that of `CN1CCN(c2nccc3ccsc23)CC1` [Production Example 6, 7-(4-methylpiperazin-1-yl)thieno[2,3-c]pyridine], 90.1%.
Then `CN1CCN(c2nccc3sccc23)CC1` [Production Example 8, 4-(4-methylpiperazin-1-yl)thieno[3,2-c]pyridine], with 78.3%; and `Cc1cc2c(N3CCN4CCC[C@H]4C3)nccc2s1` [Production Example 107, 4-((8aS)-octahydropyrrolo[1,2-a]pyrazin-2-yl)-2-methylthieno[3,2-c]-pyridine], with 98.5%.
In the case of `Nn1c(CCCCN2CCN(c3ccc4ccccc4n3)CC2)nc2ccccc2c1=O` [Example 4-3, 3-amino-2-[4-(4-quinolin-2-ylpiperazin-1-yl)butyl]-3H-quinazolin-4-one], the inhibition at 0.1 µM was 98.2%.
Consider `c1cc2ccsc2c(N2CCN3CCC[C@@H]3C2)n1` [Production Example 108, 7-((8aR)-octahydropyrrolo[1,2-a]pyrazin-2-yl)thieno[2,3-c]pyridine], for which the inhibition at 0.1 µM stood at 90.6%.
In the case of `Nn1c(CCCCN2CCN(c3ccc4ccccc4n3)CC2)nc2ccsc2c1=O` [Example 4-18, 3-amino-2-[4-(4-quinolin-2-ylpiperazin-1-yl)butyl]-3H-thieno[3,2-d]-pyrimidin-4-one], the inhibition at 0.1 µM was 98%.
On to `Clc1ccc2ccnc(N3CCN4CCC[C@H]4C3)c2c1` [Production Example 73, 7-chloro-1-((8aS)-octahydropyrrolo[1,2-a]pyrazin-2-yl)isoquinoline], for which the inhibition at 0.1 µM came out at 98.3%.
Regarding `Nn1c(CCCCN2CCN(c3ccc4ccccc4n3)CC2)nc2cccc(Cl)c2c1=O` [Example 4-25, 3-amino-5-chloro-2-[4-(4-quinolin-2-ylpiperazin-1-yl)butyl]-3H-quinazolin-4-one], the inhibition at 0.1 µM amounted to 99.4%.
In the case of `c1cc2ccsc2c(N2CCN3CCC[C@H]3C2)n1` [Production Example 103, 7-((8aS)-octahydropyrrolo[1,2-a]pyrazin-2-yl)thieno[2,3-c]pyridine] it was 91.4%; in that of `CCn1c(CCCCN2CCN(c3cc(C)c4ccccc4n3)CC2)nc2c(c1=O)CCCC2` [Example 7-7, 3-ethyl-2-[4-[4-(4-methylquinolin-2-yl)piperazin-1-yl]butyl]-5,6,7,8-tetrahydro-3H-quinazolin-4-one], 96.9%; in that of `Nn1c(CCCCN2CCN(c3ccc4ccccc4n3)CC2)nc2c(c1=O)CCCC2` [Example 4-1, 3-amino-2-[4-(4-quinolin-2-ylpiperazin-1-yl)butyl]-5,6,7,8-tetrahydro-3H-quinazolin-4-one], 101%.
In the case of `CCn1c(CCCCN2CCN(c3ccc4ccccc4n3)CC2)nc2c(c1=O)CCCC2` [Example 7-2, 3-2-[4-(4-quinolin-2-ylpiperazin-1-yl)butyl]-5,6,7,8-tetrahydro-3H-quinazolin-4-one] it was 93.3%; in that of `Cc1cc(N2CCN(CCCCc3nc4ccccc4c(=O)n3N)CC2)nc2ccccc12` [Example 4-4, 3-amino-2-[4-[4-(4-methylquinolin-2-yl)piperazin-1-yl]butyl]-3H-quinazolin-4-one], 98.7%.
`Cn1c(CCCCN2CCN(c3ccc4ccccc4n3)CC2)nc2c(c1=O)CCCC2` [Example 7-1, 3-methyl-2-[4-(4-quinolin-2-ylpiperazin-1-yl)butyl]-5,6,7,8-tetrahydro-3H-quinazolin-4-one]: the inhibition at 0.1 µM was found to be 97.5%.
`Cc1cc(N2CCN(CCCCc3nc4c(c(=O)n3C)CCCC4)CC2)nc2ccccc12` [Example 7-6, 3-methyl-2-[4-[4-(4-methylquinolin-2-yl)piperazin-1-yl]butyl]-5,6,7,8-tetrahydro-3H-quinazolin-4-one]: the inhibition at 0.1 µM was 97.4%.
Then `Cc1ccc2ccnc(N3CCN(C)CC3)c2c1` [Production Example 47, 7-methyl-1-(4-methylpiperazin-1-yl)isoquinoline], with 90.6%.
